From ChEMBL document CHEMBL6092122, “Nonenzymatic Sequestering of Formaldehyde into the Antibiotic Methylene-Bridged Dimer Phaeochromycin F by Streptomyces sp. OUCMDZ-4982 as a Possible Multipronged Chemical Defense Mechanism” (J Nat Prod, 2024) come the findings set out here.

≈ marks a conversion by molar mass, not a printed value. Calls of active or inactive are those of the source.

Data set [1] can be described thus: Chemical reactivity of compound in acetaldehyde assessed as (1S,2R,18R,19R,22S,25R,28R,40S)-48-[(2S,3R,4S,5S,6R)-3-[(2S,4S,5S,6S)-4-amino-5-hydroxy-4,6-dimethyl-tetrahydropyran-2-yl]oxy-4,5-dihydroxy-6-(hydroxymethyl)tetrahydropyran-2-yl]oxy-22-(2-amino-2-oxo-ethyl)-5,15-dichloro-2,18,32,35,37-pentahydroxy-19-[(2R,4R)-4-isobutyl-2,3-dimethyl-5-oxo-imidazolidin-1-yl]-20,23,26,42,44-pentaoxo-7,13-di …. Format: physicochemical.

Data set [2] in a line: Chemical reactivity of compound in formaldehyde assessed as (1S,2R,18R,19R,22S,25R,28R,40S)-48-[(2S,3R,4S,5S,6R)-3-[(2S,4S,5S,6S)-4-amino-5-hydroxy-4,6-dimethyl-tetrahydropyran-2-yl]oxy-4,5-dihydroxy-6-(hydroxymethyl)tetrahydropyran-2-yl]oxy-22-(2-amino-2-oxo-ethyl)-5,15-dichloro-2,18,32,35,37-pentahydroxy-19-[(4R)-4-isobutyl-3-methyl-5-oxo-imidazolidin-1-yl]-20,23,26,42,44-pentaoxo-7,13-dioxa-21, …. Format: physicochemical.

In data set [3] the test system is Staphylococcus aureus. Nature of the data set: Antibacterial activity against methicillin-resistant Staphylococcus aureus ATCC 43300 incubated for 24 hrs by microdilution method. The class given is functional.
The test system of data set [4] is Staphylococcus aureus. Nature of the data set: Antibacterial activity against Staphylococcus aureus ATCC 43300 incubated for 24 hrs by microdilution method. The class given is functional. For orientation: Broth dilution looks for growth in wells or tubes with falling amounts of substance.
The nature of data set [5]: Chemical reactivity of compound in formaldehyde assessed as (4R,4aR,5aS,12aR)-9-(3-(tert-butyl)-5-oxoimidazolidin-1-yl)-4,7-bis(dimethylamino)-3,10,12,12a-tetrahydroxy-1,11-dioxo-1,4,4a,5,5a,6,11,12a-octahydrotetracene-2-carboxamide formation. The class given is physicochemical.
Data set [6] concerns Escherichia coli. Nature of the data set: Antibacterial activity against Escherichia coli ATCC 11175 incubated for 24 hrs by microdilution method. The class given is functional, organism-based.
Data set [7] has as its system Pseudomonas aeruginosa. Nature of the data set: Antibacterial activity against Pseudomonas aeruginosa ATCC 10145 incubated for 24 hrs by microdilution method. Format: functional, organism-based.
Data set [8] concerns Nakaseomyces glabratus. Nature of the data set: Antifungal activity against Candida glabrata ATCC 2001 incubated for 24 hrs by microdilution method. Format: functional, organism-based.
The subject of data set [9] is Candida albicans. Put plainly: Antifungal activity against Candida albicans ATCC 10231 incubated for 24 hrs by microdilution method. Format: functional, organism-based.
Data set [10] concerns Staphylococcus aureus. Nature of the data set: Antibacterial activity against Staphylococcus aureus ATCC 6538 in absence of HCHO by microdilution method. The class given is functional.
Data set [11] deals with Staphylococcus aureus. Put plainly: Antibacterial activity against methicillin-resistant Staphylococcus aureus ATCC 43300 in absence of HCHO by microdilution method. The class given is functional.
Data set [12] has as its system Staphylococcus aureus. Put plainly: Antibiotic activity against Staphylococcus aureus ATCC 6538 assessed as compound dimer phaeochromycinF mediated reduction in bacterial growth in LB medium measured upto 8 days. The class given is functional, organism-based. As to conditions: time <= 8.0 day.
The test system of data set [13] is Bacillus subtilis. Put plainly: Antibiotic activity against Bacillus subtilis ATCC 6051 assessed as compound dimer phaeochromycinF mediated reduction in bacterial growth in LB medium measured upto 8 days. As to conditions: time <= 8.0 day. The class given is functional, organism-based.
A short description of data set [14]: Drug metabolism in Bacillus subtilis ATCC 6051 assessed as phaeochromycinF formation incubated for 1 hr by LC-MS analysis. Format: ADME.
In data set [15] the test system is Streptomyces sp. Put plainly: Protection against formaldehyde-induced toxicity in Streptomyces sp. OUCMDZ-4982 cultured in Gauze medium. Format: functional, organism-based.
Data set [16] is described as follows: Drug metabolism in Staphylococcus aureus ATCC 6538 assessed as phaeochromycinF formation incubated for 1 hr by LC-MS analysis. Format: ADME.
Data set [17] concerns Bacillus subtilis. Nature of the data set: Bactericidal activity against Bacillus subtilis ATCC 6051 incubated for 24 hrs by microdilution method. The class given is functional.
Data set [18] concerns Bacillus subtilis. Put plainly: Antibacterial activity against Bacillus subtilis ATCC 6051 incubated for 24 hrs by microdilution method. Format: functional.
The test system of data set [19] is Staphylococcus aureus. Put plainly: Antibacterial activity against Staphylococcus aureus ATCC 6538 incubated for 24 hrs by microdilution method. Format: functional.
In data set [20] the test system is Staphylococcus aureus. Nature of the data set: Bactericidal activity against Staphylococcus aureus ATCC 43300 incubated for 24 hrs by microdilution method. Format: functional.
The subject of data set [21] is Staphylococcus aureus. Nature of the data set: Bacteriostatic activity against methicillin-resistant Staphylococcus aureus ATCC 43300 assessed as reduction in bacterial colonies at 2 to 8 times MIC measured after 24 hrs by time kill assay. The class given is functional, organism-based.
A short description of data set [22]: Drug metabolism in Staphylococcus aureus ATCC 6538 assessed as reduction in 5-((4-hydroxy-2-oxo-2H-pyran-6-yl)methyl)-2-methyl-4H-chromen-4-one content incubated for 1 hr by LC-MS analysis. Format: ADME.
The test system of data set [23] is Staphylococcus aureus. Nature of the data set: Bactericidal activity against Staphylococcus aureus ATCC 6538 incubated for 24 hrs by microdilution method. The class given is functional.
Data set [24] has as its system Staphylococcus aureus. Put plainly: Induction of drug resistance in Staphylococcus aureus ATCC 6538 assessed as increase in MIC measured after 20 passages incubated for 24 hrs. Format: functional, organism-based.
Data set [25] in a line: Drug metabolism in Staphylococcus aureus ATCC 6538 assessed as reduction in formaldehyde content incubated for 1 hr by LC-MS analysis. Format: ADME.

For orientation: MIC means the smallest concentration in the dilution series that meets the test's criterion for growth inhibition. Low readings indicate inhibition by little substance, high ones a need for much substance. Consider `CN(C)c1cc(NC(=O)CNC(C)(C)C)c(O)c2c1C[C@H]1C[C@H]3[C@H](N(C)C)C(O)=C(C(N)=O)C(=O)[C@@]3(O)C(O)=C1C2=O` [TIGECYCLINE], for which the outcome in data set [1], in [2] and in data set [5] was Active. The MIC in data set [3] and in [4] was 0.5 µg/mL (≈ 0.854 µM) in each case.
Take `CN(C)c1cc(N2CN(C(C)(C)C)CC2=O)c(O)c2c1C[C@H]1C[C@H]3[C@H](N(C)C)C(O)=C(C(N)=O)C(=O)[C@@]3(O)C(O)=C1C2=O` (single isomer, unassigned): the MIC in [3] turned out to be 32 µg/mL (≈ 53.5 µM); in [4] it was 1 µg/mL (≈ 1.67 µM).
In the case of `Cc1cc(=O)c2c(Cc3cc(O)c(C(c4ccccc4)c4c(O)cc(Cc5cccc6oc(C)cc(=O)c56)oc4=O)c(=O)o3)cccc2o1`, the outcome in [6], in [7], in data set [8] and in data set [9] was inactive.
On to `CC(C)C[C@@H]1C(=O)N([C@H]2C(=O)N[C@@H](CC(N)=O)C(=O)N[C@H]3C(=O)N[C@H]4C(=O)N[C@H](C(=O)N[C@H](C(=O)O)c5cc(O)cc(O)c5-c5cc4ccc5O)[C@H](O)c4ccc(c(Cl)c4)Oc4cc3cc(c4O[C@@H]3O[C@H](CO)[C@@H](O)[C@H](O)[C@H]3O[C@H]3C[C@](C)(N)[C@H](O)[C@H](C)O3)Oc3ccc(cc3Cl)[C@H]2O)[C@H](C)N1C`, for which the MIC in data set [10] is 64 µg/mL (≈ 43.4 µM); in data set [11], 32 µg/mL (≈ 21.7 µM).
Consider `CC1(O)CC(=O)c2c(Cc3cc(O)c(Cc4c(O)cc(Cc5cccc6c5C(=O)CC(C)(O)O6)oc4=O)c(=O)o3)cccc2O1` (stereo not given), for which the result in data set [6], in [7], in [8] and in [9] was inactive.
With `CC(=O)c1c(O)cccc1Cc1cc(O)c(Cc2c(O)cc(Cc3cccc4oc(C)cc(=O)c34)oc2=O)c(=O)o1`, the result in data set [6], in data set [7], in data set [8] and in [9] was inactive.
On to `Cc1cc(=O)c2c(Cc3cc(O)c([C@H]4c5c(cc(Cc6cccc7oc(C)cc(=O)c67)oc5=O)O[C@H]4CC(=O)O)c(=O)o3)cccc2o1`, for which the outcome in [6], in data set [7], in data set [8] and in data set [9] was inactive.
`Cc1cc(=O)c2c(Cc3cc(O)c(C(C)c4c(O)cc(Cc5cccc6oc(C)cc(=O)c56)oc4=O)c(=O)o3)cccc2o1`: the outcome in [6], in data set [7], in data set [8] and in data set [9] was inactive.
As for `Cc1cc(=O)c2c(Cc3cc(O)c(Cc4c(O)cc(Cc5cc(=O)c6c(C)cc(O)cc6o5)oc4=O)c(=O)o3)cccc2o1`, the outcome in [6], in data set [7], in data set [8] and in [9] was inactive.
Regarding `Cc1cc(=O)c2c(Cc3cc(O)c(Cc4c(O)cc(CC5(O)CC(=O)c6c(C)cc(O)cc6O5)oc4=O)c(=O)o3)cccc2o1` (stereo not given), the outcome in data set [6], in data set [7], in [8] and in [9] was inactive.
With `CC(=O)CC(c1c(O)cc(Cc2cccc3oc(C)cc(=O)c23)oc1=O)c1c(O)cc(Cc2cccc3oc(C)cc(=O)c23)oc1=O`, the outcome in data set [6], in data set [7], in [8] and in data set [9] was inactive.
Take `CCOC(=O)/C=C/C(c1c(O)cc(C)oc1=O)c1c(O)cc(C)oc1=O`: the outcome in data set [6], in [7], in data set [8] and in data set [9] was inactive.
Take `Cc1cc(=O)c2c(Cc3cc(O)cc(=O)o3)cccc2o1`: the result in [6], in [7], in data set [13], in data set [8] and in [9] was inactive. Besides, the result in [12] and in [15] was Active. In addition, the Drug metabolism result in [14] and in data set [16] was “metabolite_detected” throughout.
A word on the MBC: it is the lowest tested concentration that kills the bacteria rather than only halting them. Low readings indicate more potent killing, high ones less potent killing. For the compound `O=C(O)c1cn(C2CC2)c2cc(N3CCNCC3)c(F)cc2c1=O` [CIPROFLOXACIN], the MBC was determined as 0.13 µg/mL (≈ 0.392 µM) in data set [17] and 4 µg/mL (≈ 12.1 µM) in data set [20]. The figures for the MIC in [18], in [19] and in data set [4] were 0.13 µg/mL (≈ 0.392 µM), 0.5 µg/mL (≈ 1.51 µM) and 1 µg/mL (≈ 3.02 µM), respectively.
Consider `CCOC(=O)CC=C(c1c(O)cc(C)oc1=O)c1c(O)cc(C)oc1=O`, for which the outcome in [6], in [7], in data set [8] and in [9] was inactive.
As to `Cc1cc(=O)c2c(Cc3cc(O)c(Cc4c(O)cc(Cc5cccc6c5C(=O)CC(C)(O)O6)oc4=O)c(=O)o3)cccc2o1` (stereo not given), the result in data set [6], in data set [7], in data set [8] and in [9] was inactive.
Consider `Cc1cc(=O)c2c(Cc3cc(O)c(Cc4c(O)cc(Cc5cccc(O)c5)oc4=O)c(=O)o3)cccc2o1`, for which the result in [6], in data set [7], in data set [8] and in data set [9] was inactive.
Regarding `CCOC(=O)C[C@@H]1Oc2cc(C)oc(=O)c2[C@@H]1c1c(O)cc(C)oc1=O`, the result in [6], in [7], in data set [8] and in data set [9] was inactive.
For the compound `Cc1cc(=O)c2c(Cc3cc(O)c(Cc4c(O)cc(Cc5cc(O)cc6c5C(=O)CC(C)(O)O6)oc4=O)c(=O)o3)cccc2o1` (stereo not given), the result in data set [6], in data set [7], in data set [8] and in data set [9] was inactive.
Turning to `CC(C)C[C@@H]1C(=O)N([C@H]2C(=O)N[C@@H](CC(N)=O)C(=O)N[C@H]3C(=O)N[C@H]4C(=O)N[C@H](C(=O)N[C@H](C(=O)O)c5cc(O)cc(O)c5-c5cc4ccc5O)[C@H](O)c4ccc(c(Cl)c4)Oc4cc3cc(c4O[C@@H]3O[C@H](CO)[C@@H](O)[C@H](O)[C@H]3O[C@H]3C[C@](C)(N)[C@H](O)[C@H](C)O3)Oc3ccc(cc3Cl)[C@H]2O)CN1C`, the MIC in [10] and in data set [11] was 64 µg/mL (≈ 43.8 µM) throughout.
As for `Cc1cc(=O)c2c(Cc3cc(O)c(Cc4c(O)cc(Cc5cccc6oc(C)cc(=O)c56)oc4=O)c(=O)o3)cccc2o1`, the result in [6], in data set [7], in data set [24], in data set [8] and in data set [9] was inactive. For the same compound, the result in data set [21] was Active. For the same compound, the Drug metabolism entry in data set [22] and in data set [25] was “metabolite_notdetected” throughout. In addition, the MBC in data set [17] worked out at 1 µg/mL (≈ 1.72 µM); in data set [23], 4 µg/mL (≈ 6.89 µM); in data set [20], 8 µg/mL (≈ 13.8 µM). Also, the minimum inhibitory concentration (MIC) amounted to 0.5 µg/mL (≈ 0.861 µM) in [18], 1 µg/mL (≈ 1.72 µM) in data set [19] and 2 µg/mL (≈ 3.45 µM) in data set [4].
